26 compounds from US20230167073A1 (Teijin Pharma Limited, priority 2020, published 2023) can be followed below.

pIC50: −log10 of the molar value. A value given as a limit tells only on which side of the number the result lay.

The target in one experiment is T1, Human TRPC6 (Homo sapiens, UniProt Q9Y210).
T1 construct: expressed in transfected cells
T1 sequence (Q9Y210 1-931): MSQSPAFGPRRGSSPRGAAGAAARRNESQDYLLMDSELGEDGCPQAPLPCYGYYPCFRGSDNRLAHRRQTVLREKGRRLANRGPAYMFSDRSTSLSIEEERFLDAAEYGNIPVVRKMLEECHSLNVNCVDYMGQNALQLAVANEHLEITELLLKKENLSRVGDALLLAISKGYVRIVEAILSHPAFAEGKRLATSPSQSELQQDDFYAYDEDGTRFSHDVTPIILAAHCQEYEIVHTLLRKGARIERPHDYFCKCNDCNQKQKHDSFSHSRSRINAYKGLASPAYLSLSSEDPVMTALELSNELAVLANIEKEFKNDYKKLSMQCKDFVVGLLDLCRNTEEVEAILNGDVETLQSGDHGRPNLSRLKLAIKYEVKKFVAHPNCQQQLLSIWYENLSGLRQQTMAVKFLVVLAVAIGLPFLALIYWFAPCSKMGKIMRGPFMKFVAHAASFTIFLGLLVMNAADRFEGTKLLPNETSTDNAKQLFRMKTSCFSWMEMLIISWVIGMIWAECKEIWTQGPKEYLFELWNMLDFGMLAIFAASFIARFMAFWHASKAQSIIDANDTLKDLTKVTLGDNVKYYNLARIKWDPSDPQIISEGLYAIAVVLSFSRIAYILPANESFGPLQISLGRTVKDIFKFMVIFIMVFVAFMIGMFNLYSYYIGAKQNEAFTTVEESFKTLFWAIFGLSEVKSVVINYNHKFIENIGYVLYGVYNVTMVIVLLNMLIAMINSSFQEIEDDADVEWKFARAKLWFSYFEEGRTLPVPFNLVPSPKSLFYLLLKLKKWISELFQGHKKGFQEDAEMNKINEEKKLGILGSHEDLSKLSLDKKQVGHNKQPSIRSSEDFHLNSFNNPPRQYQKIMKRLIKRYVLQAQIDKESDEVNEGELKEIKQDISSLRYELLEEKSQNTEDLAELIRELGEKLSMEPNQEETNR
The experiment can be described thus: Evaluation of TRPC6 channel inhibitory activity (1), FLIPR Calcium 5 Assay Kit, OAG stimulation (Compound Nos. 1-1293). The class given is cell-based.
Conditions: not given
The method in brief: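 Stable human TRPC6 line; fluorescent Ca2+ dye loading, then 20 min compound exposure before 30 μM OAG trigger. Peak-minus-baseline signal converted to % inhibition against untreated and unstimulated wells; potency given as pIC50 band.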
On to `Cc1cc(Oc2cc(C#N)ccc2-c2ncc(CCN)cn2)cc(N2C3CCC2CC3)n1` [compound 827, 4-[5-(2-aminoethyl)pyrimidin-2-yl]-3-[2-(7-azabicyclo[2.2.1]heptan-7-yl)-6-methylpyridin-4-yl]oxybenzonitrile], for which the pIC50 is more than 8.00.

Still in this experiment, the particulars now being: Human TRPC6 stably-expressing cells, OAG 30 μM, FLIPR Calcium 5 Assay Kit; read-out: Inhibitory activity (pIC50 class) (converted).
Turning to `CC(C)c1cn(Cc2cc(C#N)ccc2-c2ncc(CN)cn2)nn1` [compound 1189, 4-[5-(aminomethyl)pyrimidin-2-yl]-3-[(4-propan-2-yltriazol-1-yl)methyl]benzonitrile], the IC50 is 0.01 to 1 µM. Still for that read-out and setting: the figure for `N#Cc1ccc(-c2ncc(CCN)cn2)c(Oc2nnc(N3CCCC3)s2)c1` [compound 726, 4-[5-(2-aminoethyl)pyrimidin-2-yl]-3-[(5-pyrrolidin-1-yl-1,3,4-thiadiazol-2-yl)oxy]benzonitrile] is 0.01 to 1 µM; for `N#Cc1ccc(-c2ncc(CCN)cn2)c(Oc2nnc(-c3ccncc3)s2)c1` [compound 730, 4-[5-(2-aminoethyl)pyrimidin-2-yl]-3-[(5-pyridin-4-yl-1,3,4-thiadiazol-2-yl)oxy]benzonitrile] it is 0.01 to 1 µM. The same measure, in the same setting: the figure for `N#Cc1ccc(-c2ccc(CCN)cc2)c(Oc2cnnc(-c3ccccc3)c2)c1` [Compound 69, 4-[4-(2-aminoethyl)phenyl]-3-(6-phenylpyridazin-4-yl)oxybenzonitrile] is less than 0.01 µM. Take `Cc1cc(Oc2cc(C#N)ccc2-c2ccc(C(O)CN)cc2)cc(N2CCOCC2)n1` (centres unmarked) [Compound 197, 4-[4-(2-amino-1-hydroxyethyl)phenyl]-3-(2-methyl-6-morpholin-4-ylpyridin-4-yl)oxybenzonitrile]: the IC50 is less than 0.01 µM. The same measure, in the same setting: the figure for `CC(C)c1cc(Oc2cc(F)ccc2-c2ccc(CCN)cn2)n(C)n1` [compound 1014, 2-[6-[4-fluoro-2-(2-methyl-5-propan-2-ylpyrazol-3-yl)oxyphenyl]pyridin-3-yl]ethanamine] is less than 0.01 µM; for `N#Cc1ccc(-c2ncc(CCN)cn2)c(Oc2nnc(-c3ccccc3)s2)c1` [compound 706, 4-[5-(2-aminoethyl)pyrimidin-2-yl]-3-[(5-phenyl-1,3,4-thiadiazol-2-yl)oxy]benzonitrile] it is less than 0.01 µM; for `N#Cc1ccc(-c2ccc(CCN)cn2)c(Oc2cc(N3CCOCC3)cnn2)c1` [Compound 91, 4-[5-(2-aminoethyl)pyridin-2-yl]-3-(5-morpholin-4-ylpyridazin-3-yl)oxybenzonitrile] it is more than 1 µM. Still for that read-out and setting: under `N#Cc1ccc(-c2ncc(CN)cn2)c(C(=O)c2cnn(-c3ccccn3)c2)c1` [compound 1038, 4-[5-(aminomethyl)pyrimidin-2-yl]-3-(1-pyridin-2-ylpyrazole-4-carbonyl)benzonitrile] stands 0.01 to 1 µM; under `Cn1nc(C2CC2)cc1Oc1cc(C#N)ccc1-c1ccc(C(N)C(=O)N2CCOCC2)cn1` (centres unmarked) [Compound No. 487, 4-[5-(1-Amino-2-morpholin-4-yl-2-oxoethyl)pyridin-2-yl]-3-(5-cyclopropyl-2-methylpyrazol-3-yl)oxybenzonitrile], more than 1 µM. The same measure, in the same setting: under `Cc1nc(Oc2cc(C#N)ccc2-n2cc([C@H](O)CN)cn2)cc(-c2ccccc2Cl)n1` [compound 343, 4-[4-[(1S)-2-amino-1-hydroxyethyl]pyrazol-1-yl]-3-[6-(2-chlorophenyl)-2-methylpyrimidin-4-yl]oxybenzonitrile] stands 0.01 to 1 µM. For the compound `Cc1nc(Nc2cc(C#N)ccc2-c2ccc3c(c2)COC32CNC2)cc(N2CCOCC2)n1` [Compound 3, 3-[(2-methyl-6-morpholin-4-ylpyrimidin-4-yl)amino]-4-spiro[3H-2-benzofuran-1,3′-azetidin]-5-ylbenzonitrile], the IC50 was 0.01 to 1 µM. For the compound `COCCN(C)c1cc(Oc2cc(C#N)ccc2-c2ccc(CN)cn2)n(C)n1` [compound 799, 4-[5-(aminomethyl)pyridin-2-yl]-3-[5-[2-methoxyethyl(methyl)amino]-2-methylpyrazol-3-yl]oxybenzonitrile], the IC50 was less than 0.01 µM. Still for that read-out and setting: under `Cn1nc(C(C)(C)C)cc1C(=O)c1cc(C#N)ccc1-c1ncc(CCN)cn1` [compound 1031, 4-[5-(2-aminoethyl)pyrimidin-2-yl]-3-(5-tert-butyl-2-methylpyrazole-3-carbonyl)benzonitrile] stands less than 0.01 µM.

For the compound `Cn1nc(C2CCOCC2)cc1Oc1cc(C#N)ccc1-c1ccc([C@H](O)CN)cn1` [compound 442, 4-[5-[(1S)-2-amino-1-hydroxyethyl]pyridin-2-yl]-3-[2-methyl-5-(oxan-4-yl)pyrazol-3-yl]oxybenzonitrile], the IC50 was 0.01 to 1 µM. Still for that read-out and setting: under `N#Cc1ccc(-c2ccc(C(O)CN)cc2)c(Oc2cnnc(-c3ccccc3)c2)c1` (centres unmarked) [Compound 82, 4-[4-(2-amino-1-hydroxyethyl)phenyl]-3-(6-phenylpyridazin-4-yl)oxybenzonitrile] stands less than 0.01 µM; under `CN(C)c1cc(Oc2cc(F)ccc2-c2ncc(CCN)cn2)n(C)n1` [compound 999, 5-[2-[5-(2-aminoethyl)pyrimidin-2-yl]-5-fluorophenoxy]-N,N,1-trimethylpyrazole-3-amine], 0.01 to 1 µM. Same read-out and setting: under `Cc1nc(Oc2cc(C#N)ccc2-c2ccc(C3CN(CCC(=O)O)C3)cc2)cc(N2CCOCC2)n1` [Compound 55, 3-[3-[4-[4-cyano-2-(2-methyl-6-morpholin-4-ylpyrimidin-4-yl)oxyphenyl]phenyl]azetidin-1-yl]propanoic acid] stands more than 1 µM; under `Cc1cc(Oc2cc(C#N)ccc2-c2ccc(CC3(N)COC3)cn2)cc(N2CCOCC2)n1` [compound 562, 4-[5-[(3-aminooxetan-3-yl)methyl]pyridin-2-yl]-3-(2-methyl-6-morpholin-4-ylpyridin-4-yl)oxybenzonitrile], less than 0.01 µM. The same measure, in the same setting: the figure for `Cc1nc(Oc2cc(C#N)ccc2-n2cc3c(n2)CCNC3)cc(N2CCCCC2)n1` [compound 744, 3-(2-methyl-6-piperidin-1-ylpyrimidin-4-yl)oxy-4-(4,5,6,7-tetrahydropyrazolo[4,3-c]pyridin-2-yl)benzonitrile] is 0.01 to 1 µM. Consider `CCCN(CCC)c1cc(Oc2cc(C#N)ccc2-c2ccc(CCN)cc2)nc(C)n1` [Compound 16, 4-[4-(2-aminoethyl)phenyl]-3-[6-(dipropylamino)-2-methylpyrimidin-4-yl]oxybenzonitrile], for which the IC50 is 0.01 to 1 µM.

Regarding `CCC(N)c1cnc(-c2ccc(C#N)cc2Oc2cc(-c3ccccn3)nn2C)nc1` (centres unmarked) [compound 734, 4-[5-(1-aminopropyl)pyrimidin-2-yl]-3-(2-methyl-5-pyridin-2-ylpyrazol-3-yl)oxybenzonitrile], the IC50 was less than 0.01 µM. Same read-out and setting: under `Cc1nc(Oc2cc(C#N)ccc2-c2ccc(CCN)cc2)cc(C2CCCC2)n1` [Compound 46, 4-[4-(2-aminoethyl)phenyl]-3-(6-cyclopentyl-2-methylpyrimidin-4-yl)oxybenzonitrile] stands less than 0.01 µM; under `Cc1nc(Oc2cc(C#N)ccc2-c2ccc(C(O)CN)c(Cl)c2)cc(N2CCOCC2)n1` (centres unmarked) [Compound 150, 4-[4-(2-amino-1-hydroxyethyl)-3-chlorophenyl]-3-(2-methyl-6-morpholin-4-ylpyrimidin-4-yl)oxybenzonitrile], less than 0.01 µM; under `Cn1nc(C(F)F)cc1Oc1cc(C#N)ccc1-c1ccc(CN)cn1` [compound 828, 4-[5-(aminomethyl)pyridin-2-yl]-3-[5-(difluoromethyl)-2-methylpyrazol-3-yl]oxybenzonitrile], less than 0.01 µM.
